Experimental data: BindingDB's records for doi:10.1016/s0028-3908(96)00054-8 (National Institute of Diabetes, Digestive and Kidney …, 1996)

Key:
[1] = biological target: Gamma-aminobutyric acid receptor subunit alpha-6 (Rattus norvegicus, UniProt P30191)
[2] = biological target: Gamma-aminobutyric acid receptor subunit alpha-4 (Rattus norvegicus, UniProt P28471)
Sequence of Gamma-aminobutyric acid receptor subunit alpha-4 (P28471 whole entry): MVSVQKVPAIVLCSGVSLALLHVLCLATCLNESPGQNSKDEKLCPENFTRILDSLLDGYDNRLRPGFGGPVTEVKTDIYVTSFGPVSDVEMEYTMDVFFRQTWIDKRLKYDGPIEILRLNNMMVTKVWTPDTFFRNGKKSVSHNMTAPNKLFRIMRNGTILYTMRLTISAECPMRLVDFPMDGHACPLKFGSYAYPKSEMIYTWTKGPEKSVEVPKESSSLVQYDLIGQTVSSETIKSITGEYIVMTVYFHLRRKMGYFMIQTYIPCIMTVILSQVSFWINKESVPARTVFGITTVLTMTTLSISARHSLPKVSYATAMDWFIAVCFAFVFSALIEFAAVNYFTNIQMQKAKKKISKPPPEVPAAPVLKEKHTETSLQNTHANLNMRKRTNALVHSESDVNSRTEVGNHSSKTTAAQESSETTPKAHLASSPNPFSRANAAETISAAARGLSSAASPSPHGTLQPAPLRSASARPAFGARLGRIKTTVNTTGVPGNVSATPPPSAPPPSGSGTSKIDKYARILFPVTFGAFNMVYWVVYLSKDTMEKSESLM

Sequence of Gamma-aminobutyric acid receptor subunit alpha-6 (P30191 whole entry): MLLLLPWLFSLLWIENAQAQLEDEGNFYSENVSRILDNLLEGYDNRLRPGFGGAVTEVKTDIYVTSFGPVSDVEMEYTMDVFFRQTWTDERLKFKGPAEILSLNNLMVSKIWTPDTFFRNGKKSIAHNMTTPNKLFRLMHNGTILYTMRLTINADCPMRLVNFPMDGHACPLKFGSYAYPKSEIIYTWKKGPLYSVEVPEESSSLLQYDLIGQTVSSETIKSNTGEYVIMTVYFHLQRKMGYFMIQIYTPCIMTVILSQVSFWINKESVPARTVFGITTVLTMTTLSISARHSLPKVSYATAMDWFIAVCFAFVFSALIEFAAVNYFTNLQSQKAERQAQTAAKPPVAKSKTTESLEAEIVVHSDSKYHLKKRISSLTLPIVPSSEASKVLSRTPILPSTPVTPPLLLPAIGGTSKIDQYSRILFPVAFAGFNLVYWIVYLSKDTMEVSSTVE

| SMILES | Ki [1] | Ki [2] |
| --- | --- | --- |
| O=c1c2cnc3ccccc3c2[nH]n1-c1ccccc1 | 34.3 nM | 8 nM |
| CN1Cc2c(C(=O)OC(C)(C)C)ncn2-c2ccc(Cl)cc2C1=O | 8.2 nM | 9.5 nM |
| CN1Cc2c(C(=O)OC(C)(C)C)ncn2-c2ccc(N=[N+]=[N-])cc2C1=O | 5.3 nM | 5.2 nM |
| COC(=O)c1cc2c(cn1)[nH]c1ccccc12 | 2020 nM | 436 nM |
| CCOC(=O)c1cc2c(cn1)[nH]c1ccccc12 | 2620 nM |  |
| CC(C)(C)OC(=O)c1cc2c(cn1)[nH]c1ccccc12 | 4750 nM | 897 nM |
| O=c1c2cnc3ccccc3c2[nH]n1-c1ccc(Cl)cc1 | 500 nM | 214 nM |
| COc1ccc(-n2[nH]c3c(cnc4cc(OC)ccc43)c2=O)cc1 | 23 nM | 11.6 nM |
| COc1ccc2ncc3c(=O)n(-c4ccccc4)[nH]c3c2c1 | 74.5 nM | 22.5 nM |
| COc1ccc(-n2[nH]c3c(cnc4ccccc43)c2=O)cc1 [2-(4-Methoxy-phenyl)-2,5-dihydro-pyrazolo[4,3-c]quinolin-3-one (CGS 9895)] | 38.4 nM | 6.8 nM |
| CCc1ccc2c(c1)C(=O)N(C)Cc1c(C(=O)OC(C)(C)C)ncn1-2 [DM 286] | 13.5 nM | 10 nM |
| CN1Cc2c(C(=O)OC(C)(C)C)ncn2-c2ccc(OCc3ccccc3)cc2C1=O [DM-236] | 1590 nM | 188 nM |
| CCc1c(C(=O)OC)ncc2[nH]c3cc(OC)c(OC)cc3c12 [NSC_104999] | 121 nM | 38.5 nM |
| CCOC(=O)c1ncc2[nH]c3ccc(OCc4ccccc4)cc3c2c1COC [NSC_121926] | > 10000 nM | > 10000 nM |
| CCOC(=O)c1ncc2[nH]c3cccc(OCc4ccccc4)c3c2c1COC [NSC_123700] | 1200 nM | 573 nM |
| CCOC(=O)c1ncn2c1CN(C)C(=O)c1cc(N=[N+]=[N-])ccc1-2 [RO-154513] | 5.3 nM |  |
| CN1Cc2c(C(=O)OC(C)(C)C)ncn2-c2ccsc2C1=O [Ro-19-4603] | 3.6 nM | 6 nM |
| CCOC(=O)c1ncn2c1CN(C)C(=O)c1cc(F)ccc1-2 [ethyl 12-fluoro-8-methyl-9-oxo-2,4,8-triazatricyclo[8.4.0.0^{2,6}]tetradeca-1(14),3,5,10,12-pentaene-5-carboxylate] |  | 118 nM |
